# From patent publication US4156777A, “Process for producing glucopyranose-nitrosourea compounds and novel compounds included therein” (Tokyo Tanabe Company, Limited, priority 1977, dated 1979)
# Like-named read-outs stand apart in the source and are kept apart here.
# Experiments:
# Acute toxicity (LD50) = format: in vivo, male Wister rats; details: rat, in vivo, after 1 week
# Experimental: Test compounds were dissolved in physiological saline solution just before their dosage and administered to male Wister rats, intraperitoneally, intravenously and orally. After 1 week, the LD50 of each compound was calculated from the mortality of the test animals by the Lichfield-Wilcoxon Method.
# i.v.: intravenous administration
# [1] = Diabetogenic activity (blood glucose concentration after intravenous administration); format: in vivo, male Wister rats
# Experimental: 40-96 mg/kg of the test compounds were administered intravenously to starved male Wister rats weighing 240-260 g each, and the blood glucose concentrations of the test animals were estimated by the glucose exidase method [L. L. Saloman et al: Anal. Chem., 31 (1959), 453], in which test the compounds were dissolved in physiological saline solution just before administration. […]
# leukemia L-1210 = assay: Antitumor activity against leukemia L-1210 implanted in BDF1 mice (ILS, 60 days survivors); format: in vivo
# Source text: Test compounds were given to BDF1 mice 24 hrs after implantation of 10^6 cells of leukemia L-1210 in each animal, through single intraperitoneal administration, intraperitoneal administration for 5 successive days, single oral administration or oral administration for 5 successive days, whereupon the increase in life span (referred to as "ILS") and number of 60 days survivors of test animals were estimated, said test of antitumor activity being that according to the method of the National Cancer Center, Tokyo [A. Hoshi et al: Farmashia, 9 (1973), 464]. In the tests, the compounds were dissolved in physiological saline solution just before administration.
# ^a i.p.: intraperitoneal administration p.o: oral administration
# D1 : single administration D1~5 : administration for 5
# ^b percentage calculated from mean survival time over control
# ^c survivors/six animals
# [2] = cited from earlier work
# [3] = Effect on respiration, blood pressure, heart rate and electrocardiogram; format: in vivo, Beagle dogs; details: dog, in vivo, iv; injected into brachial veins, anesthetized Beagle dogs; read-out: maximum dosage not effected on respiration, blood pressure, heart rate and electrocardiogram
# Experimental: Beagle dogs of both sexes weighing about 10 kg were anesthetized with pentobarbital sodium (30 mg/kg, i.v.), and immobilized in the supine position. Test compounds dissolved in physiological saline solution were injected into the brachial veins of the animals and the arteries at cannulated positions were treated with heparin sodium as anticoagulant.
# The respiration rate of each animal was estimated with a respirometer (Nihonkohden, RP-3) through a tracheal cannula, the blood pressure with an electro-haemodynamometer (Nihonkohden, MP-4T) attached surgically to the femoral artery, and the heart rate with a pulse-rate tachometer (Nihonkohden, RT-2) through the trigger pulse of the blood pressure.
# [4] = Solubility in water at 25° C.; format: physicochemical; details: amount soluble in 1 ml water at 25° C.
# [5] = 40 mg/kg i.v., 0 hr after treatment
# [6] = 40 mg/kg i.v., 2 hr after treatment
# [7] = 40 mg/kg i.v., 4 hr after treatment
# [8] = 40 mg/kg i.v., 7 hr after treatment
# [9] = 40 mg/kg i.v., 10 hr after treatment
# [10] = 40 mg/kg i.v., 24 hr after treatment
# [11] = 40 mg/kg i.v., 48 hr after treatment
# [12] = 60 mg/kg i.v., 0 hr after treatment
# [13] = 60 mg/kg i.v., 2 hr after treatment
# [14] = 60 mg/kg i.v., 4 hr after treatment
# [15] = 60 mg/kg i.v., 7 hr after treatment
# [16] = 60 mg/kg i.v., 10 hr after treatment
# [17] = 60 mg/kg i.v., 24 hr after treatment
# [18] = 60 mg/kg i.v., 48 hr after treatment
# [19] = known compounds, generally seen
structure (smiles),measurement,setting,value
"CO[C@H]1O[C@H](CO)[C@@H](O)[C@H](O)[C@H]1NC(=O)N(CCCl)N=O [Example 2MCαG, 1-(2-chloroethyl)-3-(methyl α-D-glucopyranos-2-yl)-1-nitrosourea]",LD50 at 168 h,Acute toxicity (LD50); ip,48 mg/kg
same,LD50 at 168 h,Acute toxicity (LD50); po,49 mg/kg
same,Blood Glucose Concentration,[1]; [5],71.0 mg/dL
same,Blood Glucose Concentration,[1]; [6],73.5 mg/dL
same,Blood Glucose Concentration,[1]; [7],70.6 mg/dL
same,Blood Glucose Concentration,[1]; [8],72.3 mg/dL
same,Blood Glucose Concentration,[1]; [9],68.3 mg/dL
same,Blood Glucose Concentration,[1]; [10],72.7 mg/dL
same,Blood Glucose Concentration,[1]; [11],70.4 mg/dL
same,Blood Glucose Concentration,[1]; [12],70.4 mg/dL
same,Blood Glucose Concentration,[1]; [13],74.2 mg/dL
same,Blood Glucose Concentration,[1]; [14],68.2 mg/dL
same,Blood Glucose Concentration,[1]; [15],68.7 mg/dL
same,Blood Glucose Concentration,[1]; [16],67.5 mg/dL
same,Blood Glucose Concentration,[1]; [17],73.8 mg/dL
same,Blood Glucose Concentration,[1]; [18],70.8 mg/dL
same,"blood glucose concentrations versus control, in words","[1]; i.v., rats",substantially the same blood glucose concentrations as that in the control
same,ILS,"leukemia L-1210; 0.5 mg/kg/day, i.p. D1~5",15%
same,ILS,"leukemia L-1210; 1.0 mg/kg/day, i.p. D1~5",48%
same,ILS,"leukemia L-1210; 2.0 mg/kg/day, i.p. D1~5",> 249%
same,Survivors (60 days),"leukemia L-1210; 2.0 mg/kg/day, i.p. D1~5",1/6
same,ILS,"leukemia L-1210; 2.0 mg/kg/day, p.o. D1~5",> 143%
same,Survivors (60 days),"leukemia L-1210; 2.0 mg/kg/day, p.o. D1~5",1/6
same,ILS,"leukemia L-1210; 3.2 mg/kg/day, i.p. D1~5",> 394%
same,Survivors (60 days),"leukemia L-1210; 3.2 mg/kg/day, i.p. D1~5",3/6
same,ILS,"leukemia L-1210; 3.2 mg/kg/day, p.o. D1~5",> 246%
same,Survivors (60 days),"leukemia L-1210; 3.2 mg/kg/day, p.o. D1~5",2/6
same,ILS,"leukemia L-1210; 4.0 mg/kg/day, i.p. D1~5",> 349%
same,Survivors (60 days),"leukemia L-1210; 4.0 mg/kg/day, i.p. D1~5",2/6
same,ILS,"leukemia L-1210; 6.3 mg/kg/day, i.p. D1",> 128%
same,ILS,"leukemia L-1210; 6.3 mg/kg/day, i.p. D1~5",> 198%
same,Survivors (60 days),"leukemia L-1210; 6.3 mg/kg/day, i.p. D1~5",1/6
same,ILS,"leukemia L-1210; 6.3 mg/kg/day, p.o. D1~5",> 380%
same,Survivors (60 days),"leukemia L-1210; 6.3 mg/kg/day, p.o. D1~5",3/6
same,ILS,"leukemia L-1210; 8.0 mg/kg/day, i.p. D1",> 432%
same,Survivors (60 days),"leukemia L-1210; 8.0 mg/kg/day, i.p. D1",3/6
same,ILS,"leukemia L-1210; 10.0 mg/kg/day, i.p. D1",> 717%
same,Survivors (60 days),"leukemia L-1210; 10.0 mg/kg/day, i.p. D1",6/6
same,ILS,"leukemia L-1210; 10.0 mg/kg/day, i.p. D1~5",> 190%
same,Survivors (60 days),"leukemia L-1210; 10.0 mg/kg/day, i.p. D1~5",1/6
same,ILS,"leukemia L-1210; 12.5 mg/kg/day, i.p. D1~5",> 160%
same,Survivors (60 days),"leukemia L-1210; 12.5 mg/kg/day, i.p. D1~5",1.6 survivors/six animals
same,ILS,"leukemia L-1210; 12.5 mg/kg/day, p.o. D1~5",> 211%
same,Survivors (60 days),"leukemia L-1210; 12.5 mg/kg/day, p.o. D1~5",2/6
same,ILS,"leukemia L-1210; 20.0 mg/kg/day, i.p. D1",> 717%
same,Survivors (60 days),"leukemia L-1210; 20.0 mg/kg/day, i.p. D1",6/6
same,ILS,"leukemia L-1210; 20.0 mg/kg/day, i.p. D1~5",58%
same,ILS,"leukemia L-1210; 25.0 mg/kg/day, i.p. D1",> 539%
same,Survivors (60 days),"leukemia L-1210; 25.0 mg/kg/day, i.p. D1",4/6
same,"diabetogenic activity, decreasing order",[2]; [19],SZ>DCNU>GANU> 2MCαG≈6MCαG
same,NOAEL,[3],30 mg/kg
same,solubility,[4],45 mg/mL
"CN(N=O)C(=O)N[C@H]1C(O)O[C@H](CO)[C@@H](O)[C@@H]1O (stereo partly drawn) [SZ, 3-(d-glucopyranos-2-yl)-1-methyl-1-nitrosourea]","diabetogenic activity, decreasing order","[2]; rat, in vivo",SZ>DCNU>GANU> 2MCαG≈6MCαG
"O=NN(CCCl)C(=O)N[C@@H]1O[C@H](CO)[C@@H](O)[C@H](O)[C@H]1O [GANU, 1-(2-chloroethyl)-3-(β-D-glucopyranosyl)-1-nitrosourea]",LD50 at 168 h,Acute toxicity (LD50); ip,24 mg/kg
same,LD50 at 168 h,Acute toxicity (LD50); iv,10 mg/kg
same,LD50 at 168 h,Acute toxicity (LD50); po,21 mg/kg
same,Blood Glucose Concentration,[1]; [5],67.8 mg/dL
same,Blood Glucose Concentration,[1]; [6],70.4 mg/dL
same,Blood Glucose Concentration,[1]; [7],71.3 mg/dL
same,Blood Glucose Concentration,[1]; [8],94.4 mg/dL
same,Blood Glucose Concentration,[1]; [9],98.2 mg/dL
same,Blood Glucose Concentration,[1]; [10],120.3 mg/dL
same,Blood Glucose Concentration,[1]; [11],186.5 mg/dL
same,Blood Glucose Concentration,[1]; [12],67.3 mg/dL
same,Blood Glucose Concentration,[1]; [13],71.2 mg/dL
same,Blood Glucose Concentration,[1]; [14],72.6 mg/dL
same,Blood Glucose Concentration,[1]; [15],95.4 mg/dL
same,Blood Glucose Concentration,[1]; [16],105.9 mg/dL
same,Blood Glucose Concentration,[1]; [17],125.5 mg/dL
same,Blood Glucose Concentration,[1]; [18],189.8 mg/dL
same,ILS,"leukemia L-1210; 1.0 mg/kg/day, i.p. D1",42%
same,ILS,"leukemia L-1210; 5.0 mg/kg/day, i.p. D1",> 280%
same,Survivors (60 days),"leukemia L-1210; 5.0 mg/kg/day, i.p. D1",2/6
same,ILS,"leukemia L-1210; 5.0 mg/kg/day, p.o. D1",5%
same,ILS,"leukemia L-1210; 10.0 mg/kg/day, i.p. D1",> 295%
same,Survivors (60 days),"leukemia L-1210; 10.0 mg/kg/day, i.p. D1",2/6
same,ILS,"leukemia L-1210; 10.0 mg/kg/day, p.o. D1",45%
same,ILS,"leukemia L-1210; 15.0 mg/kg/day, i.p. D1",> 507%
same,Survivors (60 days),"leukemia L-1210; 15.0 mg/kg/day, i.p. D1",5/6
same,ILS,"leukemia L-1210; 20.0 mg/kg/day, i.p. D1",> 518%
same,Survivors (60 days),"leukemia L-1210; 20.0 mg/kg/day, i.p. D1",5/6
same,ILS,"leukemia L-1210; 20.0 mg/kg/day, p.o. D1",75%
same,ILS,"leukemia L-1210; 25.0 mg/kg/day, i.p. D1",> 472%
same,Survivors (60 days),"leukemia L-1210; 25.0 mg/kg/day, i.p. D1",5/6
same,ILS,"leukemia L-1210; 25.0 mg/kg/day, p.o. D1",110%
same,ILS,"leukemia L-1210; 35.0 mg/kg/day, p.o. D1",70%
same,"diabetogenic activity, decreasing order",[2]; [19],SZ>DCNU>GANU> 2MCαG≈6MCαG
same,NOAEL,[3],10 mg/kg
